Assay results as given in patent US6919470B2, “Aryl and heteroaryl sulfonates” (priority 2000, dated 2005).
pIC50: −log10 of the molar value.

Assays:
[1] = target: T1, rat CB1 receptor (Rattus norvegicus, UniProt P20272); assay: Rat CB1 luciferase reporter gene test; type: cell-based; details: rat CHOCB1 reporter cell line, forskolin-stimulated luciferase activity
T1 construct: expressed in transfected cells; host or cells: CHO (CHOluc9) luciferase reporter cells
Protocol: 1. Rats CB1 Luciferase Reporter Gene Test
Stock cultures of a rat CHOCB1 reporter cell line were prepared by the method described in WO-A-98/37061, page 55 et seq.
The following test protocol was used for the substance screening: the stock cultures were cultivated in 50% of Dulbecco's modified Eagle medium/50% F-12 (DMEM/F12) with 10% FCS at 37° C. under 10% CO2 and split 1:10 after 2 to 3 days in each case. Test cultures were seeded at 5000cells […] in 96-well plates and cultured at 37° C. for 70 hours. The cultures were then cautiously washed with phosphate-buffered saline and reconstituted with serum-free Ultra-CHO medium (Bio-Whittaker). The substances dissolved in DMSO were diluted 1× in medium and pipetted into the test cultures (maximum DMSO final concentration in test mixture: 0.5%). 20 minutes later, forskolin was added and the cultures were then incubated in an incubator at 37° C. for 3 hours. […] Immediately thereafter luciferase substrate solution (2.5 mM ATP, 0.5 mM luciferin, 0.1 mM coenzyme A, 10 mM tricine, 1.35 mM MgSO4, 15 mM DTT, pH 7.8) and briefly shaken, and the luciferase activity was measured using a Hamamatsu camera system. […]
The IC50 values were calculated using the GraphPadPrism program (Hill equation, specifically: one-site competition).

[2] = Pharmacokinetics in the rat; type: in vivo
Protocol: The bioavailability of the compounds according to the invention, and other pharmacokinetic parameters, can be determined in vivo in the following way:
5. Pharmacokinetics in the Rat
The substance is infused through a Braunüle in a lateral tail vein directly into the blood stream over 15 minutes. A calibrated 20 ml syringe is used for accurate administration of the chosen dose and volume. A Braun Melsungen No. 152440/1 pump is used for the infusion.
The substance is administered as bolus by gavage.
Blood samples are collected from catheterized animals jugular vein) in heparinized tubes. The blood is centrifuged and the plasma is prepared in a suitable manner for analysis (LC-MS-MS). The plasma is stored at <−15° C. until analyzed.
d) Pharmacokinetic Results of Example 2

[3] = target: T2, CB1 receptor (Rattus norvegicus, UniProt P20272); assay: Rat hypothermia agonism test; type: in vivo; details: oral administration
T2 construct: from tissue; host or cells: whole animal (rat), oral dosing
Protocol: The in vivo agonistic effect on the CB1 receptor was examined in the rat hypothermia assay.
Five minutes after determining the basal body temperature via an esophageal temperature probe, the test substance is administered (orally). A control group receives, likewise orally, only the solvent for the test substances (Cremophors EL 1-10%+distilled water). The body temperature is measured 120 and 240 minutes after oral administration. The size of the group for each dose is 5-7 animals (rats).
Rat Hypothermia Agonism Test

[4] = Microsomal stability investigation (rat liver microsomes); type: in vitro ADME; details: predicted from microsomal data
Excerpt: The metabolic stability of the compounds according to the invention can be found in the following in vitro assay: 4. Microsomal Stability Investigation The metabolic stability of the compounds according to the invention can be measured in rat liver microsomes (in analogy to J. Pharmacol. Exp. Ther. 1997, 283. 46-58). To determine the microsomal stability and extrapolate to the maximum possible bioavailability (Fmax) owing to the first-past effect in the liver (phase 1 reactions), the substance is incubated in low concentration with microsomal protein, with addition of cofactors, at 37° C. for 15 minutes. The incubation and the sampling take place on a modified automatic pipettor from Canberra Packard. Microsomal data (rat liver microsomes) predict a maximum possible availability of up to 100%.

[5] = system: rat; assay: Axotomy of sciatic branches in the rat (chronic pain model); type: in vivo; details: orally, acute administration, 60 minutes before the test
Protocol: 7. Axotomy of Sciatic Branches in the Rat (Chronic Pain Model)
Under pentobarbital anesthesia, the trifurcation of a sciatic nerve is exposed, and the peroneal and tibial branches are axotomized after the nerves have been ligated proximal of the axotomy site. Control animals undergo a sham operation. After the operation, the axotomized animals develop chronic mechanical allodynia and thermal hyperalgesia.
The mechanical allodynia is tested, comparing with sham-operated animals, with the aid of a pressure transducer (electronic von Frey anesthesiometer, IITC Inc.-Life Science Instruments, Woodland Hills, Calif., USA).
The thermal hyperalgesia can be determined by measuring the latency time within which a rat removes a paw from the area of a radiant heat source (plantar test, Ugo Basile (Milan)).
The substance was administered by various administration routes (i.v., i.p., orally, i.t., i.c.v., transdermally) at various times before the pain testing.
Example 2 reduces the hyperalgesia in the model at a minimally effective dose of 1 mg/kg orally (acute administration, 60 minutes before the test).

[6] = system: rat; assay: 6-Hydroxydopamine (6-OH-DA) lesion in the rat, staircase test; type: in vivo; details: oral dose of 1.0 mg/kg bid
Protocol: 8.6-Hydroxydopamine (6-OH-DA) Lesion in the Rat
Degeneration of dopaminergic nigrostriatal and striatopallidal neurotransmission is the main characteristic of Parkinson's disease. The clinical picture of Parkinson's disease can be simulated to a large extent in an animal model in which the neurotoxin 6-OH-DA is injected intracerebrally in rats.
Male rats (Harlan Winkelmann, Germany; weight at start of test: 200-250 g) were used for the experiments described. The experimental animals were housed under controlled conditions (humidity, temperature) with a 12-hour light/dark cycle. Those animals not involved in an experiment had free access to water and feed.
On the day of the operation, 30 minutes before the lesion, pargyline (Sigma, St. Louis, Mo., USA; 50 mg/kg i.p.) and desmethylimipramine HCl (Sigma; 25 mg/kg i.p.) were administered to the animals in order respectively to suppress 6-hydroxydopamine metabolism and prevent uptake of 6-hydroxydopamine in noradrenergic structures. […]
After the operation, the animals were placed on a warm plate and, after regaining consciousness while being monitored, returned to their cage and received feed and water ad libitum. […]
The motor deficits after the lesion were quantified using the following test as described in the respective literature: […]

T1 sequence (P20272 whole entry): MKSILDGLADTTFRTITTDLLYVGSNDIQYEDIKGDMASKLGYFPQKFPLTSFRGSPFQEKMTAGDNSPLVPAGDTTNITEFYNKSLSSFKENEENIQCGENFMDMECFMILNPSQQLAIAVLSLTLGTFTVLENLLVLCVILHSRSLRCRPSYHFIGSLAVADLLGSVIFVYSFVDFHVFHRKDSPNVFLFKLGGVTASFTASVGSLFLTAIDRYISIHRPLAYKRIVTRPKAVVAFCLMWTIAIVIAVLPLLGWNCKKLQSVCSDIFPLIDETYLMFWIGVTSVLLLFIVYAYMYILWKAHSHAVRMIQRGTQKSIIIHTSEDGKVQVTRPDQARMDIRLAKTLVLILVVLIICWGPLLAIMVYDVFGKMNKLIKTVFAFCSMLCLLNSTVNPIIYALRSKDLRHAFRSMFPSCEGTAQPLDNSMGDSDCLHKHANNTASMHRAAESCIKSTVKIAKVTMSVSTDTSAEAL
T2 sequence (P20272 whole entry): as above

Q: With CCCCCS(=O)(=O)Oc1cccc(-c2cccc(C(F)(F)F)c2)c1 [Example 3] as the compound, how does the pIC50 [1] read?
A: 8.62

Q: With Cc1ccnc(-c2cccc(OS(=O)(=O)CCCC(F)(F)F)c2)c1 [Example 17] as the compound, how does the pIC50 [1] read?
A: 7.80

Q: With O=S(=O)(CCCC(F)(F)F)Oc1cccc(-c2cccc(C(F)(F)F)c2)c1 [Example 2] as the compound, how does the AUCnorm ([2]; oral, dose 3 mg/kg) read?
A: 0.322 kg·h/L

Q: And the “Cmax,norm” value ([2]; oral, dose 3 mg/kg)?
A: 0.0674 kg/L

Q: And the F ([2]; oral, dose 3 mg/kg)?
A: 100%

Q: And the clearance ([2]; plasma, iv, dose 0.3 mg/kg)?
A: 51.7 mL/min/kg

Q: And the half-life ([2]; plasma, iv, dose 0.3 mg/kg)?
A: 2.2 h

Q: What about the Vd ([2]; plasma, iv, dose 0.3 mg/kg, read-out: Vss) of the same compound?
A: 5.8 L/kg

Q: And the Tmax ([2]; plasma, oral, dose 3 mg/kg)?
A: 3 h

Q: What about the half-life ([2]; plasma, oral, dose 3 mg/kg) of the same compound?
A: 1.7 h

Q: And the “ED−1° C. (effective dose for reducing the body temperature by 1° C.)” value [3]?
A: 5 mg/kg

Q: What about the “maximum possible availability (Fmax)” value [4] of the same compound?
A: up to 100%

Q: And the “minimally effective dose reducing the hyperalgesia” value [5]?
A: 1 mg/kg

Q: And the “fine coordination of the forepaws in the staircase test” value [6]?
A: improvement in the fine coordination of the forepaws
